Test system: CD14+ blood monocytes
Experiment: Multiplex xMAP cytokine production, direct stimulation of monocytes
Type: cell-based, human
Conditions: 24 h
Protocol: Primary peripheral blood mononuclear cells (PBMCs) collected from healthy donors were purchased from American Type Culture Collection (ATCC PCS-800-011). Primary CD14^+ blood monocytes were isolated from PBMCs by adherence according to standard technique. Monocyte-derived mature dendritic cells (moDCs) were obtained from CD14^+ blood monocytes according to the previously reported protocol. Briefly, blood monocytes were incubated in a complete RPMI-1640 medium (Capricorn Scientific, Ebsdorfergrund, Germany), containing 10% fetal bovine serum (FBS, Capricorn Scientific, Ebsdorfergrund, Germany), 1× antibiotic-antimycotic solution (Invitrogen, Waltham, MA, USA), 800 U/mL rhGM-CSF (Sci-Store, Moscow, Russia) and 500 U/mL rhIL-4 (Sci-Store) for 3 days in CellXpert C170i CO2-incubator (Eppendorf, Hamburg, Germany). Fresh complete RPMI-1640 medium with rhGM-CSF and rhIL-4 was added to the culture on day 3. On day 5, fresh complete RPMI-1640 containing 100 U/mL rhTNF-α (Sigma-Aldrich, St. Louis, MO, USA) as well as 800 U/mL rhGM-CSF and 500 U/mL rhIL-4 was added and the culture was incubated for another 4 days until full maturation.
Monocytes and moDCs were seeded into the wells of 48- and 24-well plates in the complete RPMI-1640 medium supplemented with 10% human AB serum (HABS, Capricorn Scientific) without antibiotics 24 h prior to the experiment, and kept in a humidified CO2-incubator (5% CO2, 37 °C). After 24 h, the medium in the wells of the 48-well plate was replaced by fresh complete RPMI-1640 medium with 10% HABS, supplemented with 2 µM of Psd1 for the sample wells or fresh medium alone for the control wells. Medium in the wells of the 24-well plate was replaced by fresh complete RPMI-1640 medium with 10% human serum without antibiotics. Then, Millicell inserts with Caco-2 monolayers with TEER > 400 Ωcm^2 were placed into the wells of the 24-well plate, containing monocytes or moDCs. Wells with Millicell inserts with Caco-2 monolayers without immune cells were used as control wells. Medium in apical chambers of Millicell inserts was replaced by fresh complete RPMI-1640 with 10% human serum medium containing Psd1 at the final concentration of 2 µM or Candida albicans at the concentration of 5 × 10^4 cells/mL or yeast cells together with the pea defensin at the same concentration. Fresh complete RPMI-1640 medium only with 10% human serum and without antibiotics was used in control wells. Plates were kept in CO2-incubator (5% CO2, 37 °C) for another 24 h. Culture supernatants from the wells of the 48-well plate and basolateral chambers of the 24-well plate were collected and stored at −70 °C degrees less than one month prior to the analytes assessment.
The following 48 analytes were measured at a protein level by multiplex xMAP technology using the MILLIPLEX Human Cytokine/Chemokine/Growth Factor Panel A kit (HCYTA-60K-PX48, Merck, Darmstadt, Germany): sCD40L, EGF, Eotaxin-1/CCL11, FGF-2/FGF-basic, Flt-3 ligand, Fractalkine/CX3CL1, G-CSF, GM-CSF, GROα/CXCL1, IFNα2, IFNγ, IL-1α, IL-1β, IL-1RA, IL-2, IL-3, IL-4, IL-5, IL-6, IL-7, IL-8/CXCL8, IL-9, IL-10, IL-12(p40), IL-12(p70), IL-13, IL-15, IL-17A/CTLA8, IL-17E/IL-25, IL-17F, IL-18, IL-22, IL-27, IP-10/CXCL10, MCP-1/CCL2, MCP-3/CCL7, M-CSF, MDC/CCL22, MIG/CXCL9, MIP-1α/CCL3, MIP-1β/CCL4, PDGF-AA, PDGF-AB/BB, RANTES/CCL5, TGFα, TNFα, TNFβ, and VEGF-A. Multiplex-based assay read-out was performed using the MAGPIX system (Merck) with the xPONENT 4.2 software (Merck) in accordance with the manufacturer’s instruction with overnight incubation of the samples with primary antibodies. A final analysis was carried out with the MILLIPLEX Analyst v5.1 software (Merck). Measurements were performed twice for each sample. Release of the analytes in control and experimental samples was compared with an unpaired two-sample t-test using GraphPad Prism v.8.0.1 (GraphPad Software, Inc., San Diego, CA, USA). The p values ≤ 0.05 were considered significant.

For “Psd1: pea defensin from Pisum sativum (UNIPROT P81929), recombinant peptide overexpressed in Escherichia coli (KTCEHLADTYRGVCFTNASCDDHCKNKAHLISGTCHNWKCFCTQNC; UniProt P81929 1-46, looked up)”, the EGF level (Mono+Psd1, 2 µM, supernatant) was 8.15 pg/mL, the Eotaxin level (Mono+Psd1, 2 µM, supernatant) was <3.52↓ pg/ml and the FGF-2 level (Mono+Psd1, 2 µM, supernatant) was 41.38 pg/mL. For the same substance, the FLT-3L level (Mono+Psd1, 2 µM, supernatant) was 0.65 pg/mL, the Fractalkine level (Mono+Psd1, 2 µM, supernatant) was <17.82↓ pg/ml and the G-CSF level (Mono+Psd1, 2 µM, supernatant) was 52.17 pg/mL. It also gave a GM-CSF level (Mono+Psd1, 2 µM, supernatant) of 12.61 pg/mL, a GROa level (Mono+Psd1, 2 µM, supernatant) of 1254 pg/mL and an IFNa2 level (Mono+Psd1, 2 µM, supernatant) of 12.78 pg/mL. For the same substance, the IFNg level (Mono+Psd1, 2 µM, supernatant) was <2.23↓ pg/ml, the IL-1RA level (Mono+Psd1, 2 µM, supernatant) was 4.01 pg/mL and the IL-1a level (Mono+Psd1, 2 µM, supernatant) was 14.17 pg/mL. The IL-1b level (Mono+Psd1, 2 µM, supernatant) was <2.26↓ pg/ml, the IL-2 level (Mono+Psd1, 2 µM, supernatant) was 1.12 pg/mL and the IL-3 level (Mono+Psd1, 2 µM, supernatant) was <0.60↓ pg/ml. For the same substance, the IL-4 level (Mono+Psd1, 2 µM, supernatant) was <1.14↓ pg/ml, the IL-5 level (Mono+Psd1, 2 µM, supernatant) was <0.30↓ pg/ml and the IL-6 level (Mono+Psd1, 2 µM, supernatant) was 478.09 pg/mL. The IL-7 level (Mono+Psd1, 2 µM, supernatant) was <0.38↓ pg/ml, the IL-8 level (Mono+Psd1, 2 µM, supernatant) was 6178 pg/mL and the IL-9 level (Mono+Psd1, 2 µM, supernatant) was 3.19 pg/mL. The IL-10 level (Mono+Psd1, 2 µM, supernatant) was 22.94 pg/mL, the “IL-12 (p40) level” value (Mono+Psd1, 2 µM, supernatant) was 19.24 pg/mL and the “IL-12 (p70) level” value (Mono+Psd1, 2 µM, supernatant) was <1.68↓ pg/ml. For the same substance, the IL-13 level (Mono+Psd1, 2 µM, supernatant) was 11.06 pg/mL, the IL-15 level (Mono+Psd1, 2 µM, supernatant) was 1.44 pg/mL and the IL-17A level (Mono+Psd1, 2 µM, supernatant) was 3.18 pg/mL. For the same substance, the IL-17E/IL-25 level (Mono+Psd1, 2 µM, supernatant) was <18.85↓ pg/ml, the IL-17F level (Mono+Psd1, 2 µM, supernatant) was <19.03↓ pg/ml and the IL-18 level (Mono+Psd1, 2 µM, supernatant) was 0.8 pg/mL. For the same substance, the IL-22 level (Mono+Psd1, 2 µM, supernatant) was 10.35 pg/mL, the IL-27 level (Mono+Psd1, 2 µM, supernatant) was 59.83 pg/mL and the IP-10 level (Mono+Psd1, 2 µM, supernatant) was 165.32 pg/mL. The M-GSF level (Mono+Psd1, 2 µM, supernatant) was 29.48 pg/mL, the MCP-1 level (Mono+Psd1, 2 µM, supernatant) was 6617 pg/mL and the MCP-3 level (Mono+Psd1, 2 µM, supernatant) was 371.63 pg/mL. The MDC level (Mono+Psd1, 2 µM, supernatant) was 864.86 pg/mL, the MIG level (Mono+Psd1, 2 µM, supernatant) was 1166 pg/mL and the MIP-1a level (Mono+Psd1, 2 µM, supernatant) was 118.6 pg/mL. It also gave an MIP-1b level (Mono+Psd1, 2 µM, supernatant) of 254.87 pg/mL, a PDGF-AA level (Mono+Psd1, 2 µM, supernatant) of 26.77 pg/mL and a PDGF-AB/BB level (Mono+Psd1, 2 µM, supernatant) of 543.88 pg/mL. It also gave an RANTES level (Mono+Psd1, 2 µM, supernatant) of 59.35 pg/mL, a TGF-a level (Mono+Psd1, 2 µM, supernatant) of 2.23 pg/mL and a TNFa level (Mono+Psd1, 2 µM, supernatant) of 90.69 pg/mL. For the same substance, the TNFb level (Mono+Psd1, 2 µM, supernatant) was 2.7 pg/mL, the VEGFa level (Mono+Psd1, 2 µM, supernatant) was 4.16 pg/mL and the sCD40L level (Mono+Psd1, 2 µM, supernatant) was 98.67 pg/mL. For the same substance, the “increase in IL-12, IL-15, IL-27 and MCP-1” value (monocytes, 2 μM) was “failed to reach statistical significance” and the “production of TNFα, IL-6, IL-8, IP-10, MCP-3, and G-CSF” value (monocytes, 2 μM) was “increased”.
